Measured values published in patent publication US20080108581A1, “Compounds and Their Use for Specific and Simultaneous Inhibition of Genes Involved In Diseases and Related Drugs” (INSTITUT NATIONAL DE LA SANTE ET DE LA RECHERCHE MEDICAL …, priority 2003, published 2008).

Assays:
[1] = molecular target: T1, human topoisomerase I (Homo sapiens, UniProt P11387); assay: Topoisomerase I DNA cleavage test on radiolabelled duplex; assay type: biochemical; details: in vitro, free inhibitors
T1 construct: purchased Invitrogen Inc
T1 sequence (P11387 1-765): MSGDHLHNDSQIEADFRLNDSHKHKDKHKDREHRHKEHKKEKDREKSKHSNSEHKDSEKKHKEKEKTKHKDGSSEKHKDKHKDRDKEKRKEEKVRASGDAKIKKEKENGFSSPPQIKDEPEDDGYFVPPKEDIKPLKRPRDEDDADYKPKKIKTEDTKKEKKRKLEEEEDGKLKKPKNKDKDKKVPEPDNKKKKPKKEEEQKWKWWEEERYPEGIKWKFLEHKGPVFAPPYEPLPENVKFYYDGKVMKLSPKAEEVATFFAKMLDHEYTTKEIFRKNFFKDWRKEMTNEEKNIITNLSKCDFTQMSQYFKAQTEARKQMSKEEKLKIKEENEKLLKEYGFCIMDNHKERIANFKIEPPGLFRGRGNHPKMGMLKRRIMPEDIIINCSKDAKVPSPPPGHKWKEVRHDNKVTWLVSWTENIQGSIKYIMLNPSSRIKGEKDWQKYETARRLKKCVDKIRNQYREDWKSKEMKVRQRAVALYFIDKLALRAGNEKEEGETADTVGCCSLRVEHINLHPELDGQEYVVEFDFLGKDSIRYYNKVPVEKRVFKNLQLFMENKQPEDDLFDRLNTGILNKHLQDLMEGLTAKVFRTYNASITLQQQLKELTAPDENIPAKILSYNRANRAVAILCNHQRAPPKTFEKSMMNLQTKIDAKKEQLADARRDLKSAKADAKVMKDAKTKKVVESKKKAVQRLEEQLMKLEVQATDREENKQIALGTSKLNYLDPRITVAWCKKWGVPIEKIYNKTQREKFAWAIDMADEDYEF
Experimental: The radiolabelled 324-bp duplex in position 3′ on the oligopyrimidine strand (well 1) was incubated with topoisomerase I in the presence of three camptothecin derivatives (wells 2-4, 10CPT, 7CPT, SCPT), or of these three derivatives conjugated with TFO 16 (wells 5-7, TFO16-L4-10CPT, TFO16-L6-CPT, TFO16-L3-SCPT). The cleavage sites are indicated by letters and the binding site of the conjugate is shown diagrammatically. L3=diaminopropynyl; L4=diaminobutyl, L6=diaminohexyl; after incubation, the protein is digested by a treatment with SDS/proteinase K and the cleavage products are analysed on a denaturating gel;
The radiolabelled duplexes (50 nM) are incubated for 1 hour at 30° C., in 50 mM. […] After ethanol precipitation, all the samples are re-suspended in 6 μl of formamide, heated to 90° C. for 4 minutes and cooled again on ice for 4 mins, before being deposited on 8% and 10% denaturing polyacrylamide gel [19/1 acrylamide:bisacrylamide], for the long and short targets respectively, containing 7.5 M urea in 1× TBE buffer (50 mM Tris-HCl, 55 mM boric acid, 1 Mm EDTA), In order to quantify the cleavage intensity, the gels are scanned with a Dynamics 445SI Phosphorimager. […]
The cleavage specificity of the conjugates was measured in vitro by a standard topoisomerase I cleavage test. […]

[2] = molecular target: T2, DNA/topo I cleavage complexes (Homo sapiens, UniProt P11387); assay: Formation of DNA/topo I cleavage complexes in HeLa nuclei followed by immunoblot (CsCl gradient, Western slot blot); assay type: cell-based; details: 3 h at 37° C., 5 μM (FIG. 8)
T2 construct: HeLa nucleus cells (5000000) were prepared and incubated 3 h at 37° C. with the topoisomerase I poison; endogenous in cells; host or cells: HeLa nuclei
T2 sequence (P11387 1-765): T1 sequence (P11387 1-765)
Experimental: FIG. 8 gives correlation results of the biological effects with the formation of DNA/topo I/CPT complexes: the formation of the complexes in the cells was followed by immunoblot.
In the experiments corresponding to FIG. 8, HeLa nucleus cells (5000000) were prepared and incubated 3 h at 37° C. with the topoisomerase I poison free (CPT or ST1578) or coupled to oligonucleotide (TFO-L4-10CPT or TFO-ST1578 or LNA-ST1578), or with a control oligonucleotide (TFO-NH2 or TFO-NPh2) at various concentration (in FIG. 8 at 5 μM). After adding of sarkosyl, the lysates were ultracentrifugated 16 h on a gradient of CsCl. 12 fractions were recovered and analysed by Western slot blot to show the fractions containing topoisomerase I (in 1-4 for the untreated control (mock)).
The fractions containing the DNA were identified by measuring absorbance at 260 nm (fractions 8-10).

| Compound | stimulation of DNA cleavage by topoisomerase 1 compared with 7-aminoethyl-camptothecin [1] | fractions of the CsCl gradient containing topoisomerase I (stabilisation of DNA/topo I cleavage complexes) [2] |
| --- | --- | --- |
| CC[C@@]1(O)C(=O)OCc2c1cc1n(c2=O)Cc2cc3cc(C(=O)O)ccc3nc2-1 [10-carboxycamptothecin, 20S-10-carboxycamptothecin] | more effectively |  |
| CC[C@@]1(O)C(=O)OCc2c1cc1n(c2=O)Cc2cc3ccccc3nc2-1 [CPT, camptothecin] |  | observed only in fractions containing DNA |
| CC[C@@]1(O)C(=O)OCc2c1cc1n(c2=O)Cc2c-1nc1ccccc1c2C=NCCN [ST1578, 20S-7-aminoethyliminomethylcamptothecin] |  | observed only in fractions containing DNA |
